Experiments:
[1] = tested on: patients with multiple sclerosis; test: Category-rating scales of symptoms, 15 week study; type: in vivo, human; details: category rating vs before study start
Method: Secondary outcomes were also measured in the above-described study. Such secondary outcomes included the Rivermead mobility index (See e.g. Collen, F. M. et al., The Rivermead mobility index: a further development of the Rivermead motor assessment. Int. Disanil. Stud. 1991; 13:50 54) hereby incorporated by reference in its entirety, a timed 10 meter walk, four self completion questionnaires—the United Kingdom neurological disability score (See e.g. Sharrack, B., Hughes R. A., The Guy's neurological disability scale (GNDS): a new disability measure for multiple sclerosis. Mult. Sder. 1999; 5: 223-33), and a series of nine category-rating scales. For the category-rating scale assessment, patients were asked to assess how their symptoms had been over the previous week compared with how they were just before the study started. Categories included irritability, depression, tiredness, muscle stiffness, tremor, pain, sleep, muscle spasms, and amount of energy.
Category rating scales were used to assess whether patients felt their symptoms had improved while on treatment relative to before start of treatment. Overall, patients felt that symptoms of pain, sleep quality, spasms, and had improved while on active treatment.

[2] = tested on: patients with multiple sclerosis; test: Ashworth score, 52 week follow up; type: in vivo, human
From the text: In Example 4, the study described in Examples 1-3 above was continued to determine if long-term therapy with D9-TCH or cannabis plant extract would affect the progression of MS. At the end of week 15, patients were offered the opportunity to resume medication at the previously determined dose for a maximum of 52 weeks. If patients decided not to continue medication, the reasons for non-continuance were documented. Throughout the study, capsule compliance was checked at clinic visits by counting the number of capsules returned. Urine samples for cannabinoid analysis were collected at each clinic visit during the follow up phase in order to evaluate potential cannabis use in the placebo group.
In order to reduce the potential for unmasking bias from treatment side effects, two study personnel were used at each centre. A treating physician monitored the dosage, side effects, and patient wellbeing, while an assessor (usually a physiotherapist) measured the Ashworth score, timed 10 metre walk, and Rivermead Mobility Index (RMI). […] Assessors remained blinded to any discussion of dosage or side effects, and when evaluating patients' spasticity, were instructed not to have access to their assessment scores from previous visits. Self completion booklets containing the General Health Questionnaire-30 (GHQ-30), category rating scales (asking patients to assess any change in their symptoms at that point in the study compared with how they were before they started medication, and measuring irritability, depression, tiredness, muscle stiffness, tremor, pain, sleep, muscle spasms, and energy levels), the UK Neurological Disability Scale (UKNDS), and the Barthel Index (BI) were sent to participants just prior to week 27 and week 52. The Expanded Disability Status Scale (EDSS) was used at week 52.
As set forth in FIG. 5, 95% Confidence intervals for differences in means (active minus placebo) of changes in total Ashworth score at each visit are shown. […] For these patients, their last Ashworth score (visit 10) was carried forward as their final measured response. […]

[3] = tested on: patients with multiple sclerosis with problematic spasticity; test: Ashworth score of spasticity, randomized placebo-controlled 15 week study; type: in vivo, human; details: baseline to 13 weeks follow-up
[4] = tested on: patients with multiple sclerosis; test: Adverse events reported by patients, 15 week study
[5] = tested on: patients with multiple sclerosis; test: Timed 10 metre walk / ability to walk, 52 week follow up; type: in vivo, human; details: end of 52 week study
From the text: (§1) In order to reduce the potential for unmasking bias from treatment side effects, two study personnel were used at each centre. A treating physician monitored the dosage, side effects, and patient wellbeing, while an assessor (usually a physiotherapist) measured the Ashworth score, timed 10 metre walk, and Rivermead Mobility Index (RMI). […] Assessors remained blinded to any discussion of dosage or side effects, and when evaluating patients' spasticity, were instructed not to have access to their assessment scores from previous visits. […]
(§2) Times taken to complete a 10 metre walk were analysed using the Kruskal-Wallis test, and non-parametric methods were used to produce confidence intervals for the median. The RMI, UKNDS, postal BI, and GHQ-30 were each analysed using non-parametric analysis of variance to compare the groups. EDSS scores were analysed using Fisher's exact test. Category rating scales were analysed using contingency table analysis. […]

[6] = tested on: patients with multiple sclerosis; test: Rivermead Mobility Index (RMI), 52 week follow up; type: in vivo, human; details: FIG. 6
From the text: as §1, §2

## CCCCCc1cc(O)c2c(c1)OC(C)(C)[C@@H]1CCC(C)=C[C@@H]21 (relative stereo) [delta-9-THC, Delta-9-Tetrahydrocannabinol]
[1]
  Depression: Deterioration, % of patients: (34%)
  Depression: Deterioration, number of patients: 42
  Depression: Improvement, % of patients: (29%)
  Depression: Improvement, number of patients: 36
  Depression: Same, % of patients: (38%)
  Depression: Same, number of patients: 47
  Energy: Deterioration, % of patients: (28%)
  Energy: Deterioration, number of patients: 49
  Energy: Improvement, % of patients: (35%)
  Energy: Improvement, number of patients: 61
  Energy: Same, % of patients: (36%)
  Energy: Same, number of patients: 63
  Irritability: Deterioration, % of patients: (29%)
  Irritability: Deterioration, number of patients: 32
  Irritability: Improvement, % of patients: (33%)
  Irritability: Improvement, number of patients: 37
  Irritability: Same, % of patients: (38%)
  Irritability: Same, number of patients: 42
  Pain: Deterioration, % of patients: (17%)
  Pain: Deterioration, number of patients: 22
  Pain: Improvement, % of patients: (50%)
  Pain: Improvement, number of patients: 64
  Pain: Same, % of patients: (33%)
  Pain: Same, number of patients: 43
  Shake/tremor: Deterioration, % of patients: (25%)
  Shake/tremor: Deterioration, number of patients: 32
  Shake/tremor: Improvement, % of patients: (41%)
  Shake/tremor: Improvement, number of patients: 52
  Shake/tremor: Same, % of patients: (34%)
  Shake/tremor: Same, number of patients: 44
  Sleep: Deterioration, % of patients: (16%)
  Sleep: Deterioration, number of patients: 24
  Sleep: Improvement, % of patients: (47%)
  Sleep: Improvement, number of patients: 71
  Sleep: Same, % of patients: (38%)
  Sleep: Same, number of patients: 57
  Spasms: Deterioration, % of patients: (22%)
  Spasms: Deterioration, number of patients: 27
  Spasms: Improvement, % of patients: (49%)
  Spasms: Improvement, number of patients: 81
  Spasms: Same, % of patients: (29%)
  Spasms: Same, number of patients: 49
  Spasticity: Deterioration, % of patients: (27%)
  Spasticity: Deterioration, number of patients: 47
  Spasticity: Improvement, % of patients: (51%)
  Spasticity: Improvement, number of patients: 89
  Spasticity: Same, % of patients: (23%)
  Spasticity: Same, number of patients: 40
  Tiredness: Deterioration, % of patients: (48%)
  Tiredness: Deterioration, number of patients: 76
  Tiredness: Improvement, % of patients: (22%)
  Tiredness: Improvement, number of patients: 35
  Tiredness: Same, % of patients: (29%)
  Tiredness: Same, number of patients: 46
[2]; 52 week follow up
  Mean (SD) difference in Ashworth scores from baseline to end of study: 1.82 (8.12)
  improvement on the Ashworth scale from a baseline mean of around 22: approximately 2 points
[2]; end of the 52 week treatment period
  effect on progression of MS (spasticity and disability): profound effects in slowing the progression of MS
[3]
  Mean (SD) change in Ashworth score, lower-body muscle groups: 1.39 (5.21)
  Mean (SD) change in Ashworth score, upper-body muscle groups: 0.48 (4.70)
[3]; all muscle groups
  Mean (SD) change in total Ashworth score (baseline minus follow-up): 1.86 (7.95)
[4]
  Adverse event: Blocked/insertion of suprapubic catheter (number): 0
  Adverse event: Constipation (number): 0
  Adverse event: Grand mal seizure (number): 0
  Adverse event: MS relapse or possible relapse (number): 1
  Adverse event: Other (number): 11
  Adverse event: Pneumonia (number): 2
  Adverse event: Urinary tract infection (number): 3
[5]
  proportion of patients unable to walk at the end of the study who could walk at baseline: 6%
[6]
  treatment effect on Rivermead Mobility Index: Suggestion of treatment effect

Reference: US20080175902A1, “Methods for slowing the progression of multiple sclerosis” (University of Plymouth, priority 2006, published 2008)
